Source: US20130344026A1, “Dimeric Smac Mimetics” (priority 2009, published 2013)
Read-outs that look alike come from different tables or passages of the source. *1 amine or outer side, *2 acyl side, *3 side chain or, on linkers, in order; H or OH if unused. Where a SMILES comes first, the peptide text is derived from it. Bridges are numbered along the chain shown (N, C = ends). Roman numbers before positions name the chains, in order. [ ]: non-standard residue; d: D form. Piperazine(1,4-diyl) = C1CN([*:2])CCN1[*:1]; Chg = N[C@H](C(=O)O)C1CCCCC1; Tle = CC(C)(C)[C@H](N)C(=O)O; NMeA = CN[C@@H](C)C(=O)O

Test system: HCC461
Test: cell viability assay in HCC461, compound alone
Type: cell-based
[1] = HCC461 cells, compound alone, read-out: IC50 (uM) in cell viability assay in HCC461
[2] = HCC461, Tables 15-18, read-out: IC50 (uM) in cell viability assay in HCC461
[3] = HCC461, HCC461, Tables 6-9, read-out: IC50 (μM) in cell viability assay in HCC461
[4] = HCC461, HCC461 cells, compound alone, read-out: IC50 (uM) in cell viability assay in HCC461
[5] = HCC461, HCC461, Tables 15-18, read-out: IC50 (uM) in cell viability assay in HCC461

`CN[C@@H](C)C(=O)N[C@H](C(=O)N1C[C@@H](NC(=O)c2cccc(C(=O)N[C@H]3C[C@@H](C(=O)NC4CCCC5CCCCC54)N(C(=O)[C@@H](NC(=O)[C@H](C)NC)C(C)(C)C)C3)c2)C[C@H]1C(=O)NC1CCCC2CCCCC21)C(C)(C)C` (stereo partly shown) [Compound P3-59] gave an IC50 [1] of 0.45 µM.

`CN[C@@H](C)C(=O)N[C@H](C(=O)N1CCC[C@H]1C(=O)N[C@H](CNC(=O)C1CCCCC1C(=O)NC[C@@H](NC(=O)[C@@H]1CCCN1C(=O)[C@@H](NC(=O)[C@H](C)NC)C(C)(C)C)C1CCCCC1)C1CCCCC1)C(C)(C)C` (single isomer, unassigned) [Compound P4-2] gave an IC50 [2] of 0.12 µM.

`CN[C@@H](C)C(=O)N[C@@H](CCC(=O)N[C@H]1CC(C(=O)N[C@H](C)c2ccccc2)N(C(=O)[C@@H](NC(=O)[C@H](C)NC)C(C)(C)C)C1)C(=O)N[C@H](C(=O)N[C@@H](C)C(C)C)C(C)(C)C` (stereo partly shown) [Compound 164] was tested, and the IC50 [3] was > 30 µM.

Compound `CN[C@@H](C)C(=O)N[C@H](C(=O)N1C[C@@H](NC(=O)C2CCCC(C(=O)N[C@H]3C[C@@H](C(=O)NC4CCCc5ccccc54)N(C(=O)[C@@H](NC(=O)[C@H](C)NC)C(C)(C)C)C3)C2)CC1C(=O)N[C@@H]1CCCc2ccccc21)C(C)(C)C` (stereo partly shown) [Compound P3-28] has an IC50 [1] of 0.019 µM.

`C#CC[C@H](NC(=O)[C@H](C)NC)C(=O)N1C[C@@H](NC(=O)c2cccc(C(=O)N[C@H]3C[C@@H](C(=O)N[C@@H]4CCCc5ccccc54)N(C(=O)[C@H](CC#C)NC(=O)[C@H](C)NC)C3)c2)C[C@H]1C(=O)N[C@@H]1CCCc2ccccc21` [Compound P3-12] was tested, and the IC50 [4] was 0.047 µM.

`CN[C@@H](C)C(=O)NC(C(=O)N1CCC[C@H]1C(=O)NC1CCCc2ccccc21)c1ccc(C#Cc2ccc(C(NC(=O)[C@H](C)NC)C(=O)N3CCC[C@H]3C(=O)NC3CCCc4ccccc43)cc2)cc1` (stereo partly shown) [Compound P2-1] was tested, and the IC50 [5] was 0.018 µM.

Compound `CN[C@@H](C)C(=O)N[C@H](C(=O)N1C[C@@H](NC(=O)c2cccc(C(=O)N[C@H]3C[C@@H](C(=O)NC4CCCC5CCCCC54)N(C(=O)[C@@H](NC(=O)[C@H](C)NC)C(C)(C)C)C3)c2)C[C@H]1C(=O)NC1CCCC2CCCCC21)C(C)(C)C` (stereo partly shown) [Compound P3-57] has an IC50 [1] of 1.69 µM.

In the case of `CN[C@@H](C)C(=O)N[C@H](C(=O)N[C@@H](CCCCNC(=O)c1cccc(C(=O)N[C@H]2CC(C(=O)N[C@H](C)c3ccccc3)N(C(=O)[C@@H](NC(=O)[C@H](C)NC)C(C)(C)C)C2)c1)C(=O)N[C@@H](C)C(C)C)C(C)C` (stereo partly shown) [Compound 162], the IC50 [3] is reported as > 30 µM.

Compound `CN[C@@H](C)C(=O)N[C@H](C(=O)N1C[C@@H](NC(=O)CC[C@@H](NC(=O)[C@H](NC(=O)[C@@H](C)NC)C(C)(C)C)C(=O)N[C@H]2CCCc3ccccc32)C[C@H]1C(=O)N[C@H](C)C(C)C)C(C)(C)C` [Compound 159] has an IC50 [3] of 0.221 µM.

`CN[C@@H](C)C(=O)N[C@H](C(=O)N1C[C@@H](NC(=O)c2cccc(C(=O)NCC[C@@H](NC(=O)[C@H](NC(=O)[C@@H](C)NC)C(C)C)C(=O)N[C@@H](C)C(C)C)c2)C[C@H]1C(=O)N[C@@H]1CCCc2ccccc21)C(C)(C)C` [Compound 138] was tested, and the IC50 [3] was > 30 µM.

`C#CC[C@H](NC(=O)[C@H](C)NC)C(=O)N1C[C@@H](NC(=O)c2ccc(C(=O)N[C@H]3C[C@@H](C(=O)N[C@@H]4CCCc5ccccc54)N(C(=O)[C@H](CC#C)NC(=O)[C@H](C)NC)C3)cc2)C[C@H]1C(=O)N[C@@H]1CCCc2ccccc21` [Compound P3-4] showed an IC50 [4] of 0.006 µM.

Work on `CN[C@@H](C)C(=O)N[C@H](C(=O)N1C[C@@H](NC(=O)CCCC(=O)N[C@H]2C[C@@H](C(=O)NC3c4ccccc4-c4ccccc43)N(C(=O)[C@@H](NC(=O)[C@H](C)NC)C(C)(C)C)C2)C[C@H]1C(=O)NC1c2ccccc2-c2ccccc21)C(C)(C)C` [Compound P3-3] yielded an IC50 [4] of 0.07 µM.

`CN[C@@H](C)C(=O)N[C@H](C(=O)N1CCC[C@H]1C(=O)N[C@H](CNC(=O)C1CCCC(C(=O)NC[C@@H](NC(=O)[C@@H]2CCCN2C(=O)[C@@H](NC(=O)[C@H](C)NC)C(C)(C)C)C2CCCCC2)C1)C1CCCCC1)C(C)(C)C` (single isomer, unassigned) [Compound P4-5] was tested, and the IC50 [2] was 0.011 µM.

In the case of `CN[C@@H](C)C(=O)N[C@H](C(=O)N1C[C@@H](NC(=O)c2cc(C(=O)N[C@H]3C[C@@H](C(=O)NCc4ccc(F)cc4)N(C(=O)[C@@H](NC(=O)[C@H](C)NC)C(C)(C)C)C3)[nH]n2)C[C@H]1C(=O)NCc1ccc(F)cc1)C(C)(C)C` [Compound P3-72], the IC50 [4] is reported as 0.023 µM.

`CN[C@@H](C)C(=O)N[C@H](C(=O)N1CCC[C@H]1C(=O)N[C@H](COCc1cccc(COC[C@@H](NC(=O)[C@@H]2CCCN2C(=O)[C@@H](NC(=O)[C@H](C)NC)C(C)(C)C)C2CCCCC2)c1)c1ccccc1)C(C)(C)C` [Compound P4-18] was tested, and the IC50 [5] was 0.013 µM.

In the case of `CN[C@@H](C)C(=O)N[C@H](C(=O)N1CCC[C@H]1C(=O)N[C@H](C(=O)N1CCN(C(=O)[C@@H](NC(=O)[C@@H]2CCCN2C(=O)[C@@H](NC(=O)[C@H](C)NC)C(C)(C)C)C2CCCCC2)CC1)C1CCCCC1)C(C)(C)C` [Compound P4-10] (I: H-[NMeA][Tle]P[Chg] / II: H-[NMeA][Tle]P[Chg]; linker I:C-II:C via Piperazine(1,4-diyl)), the IC50 [5] is reported as 0.26 µM.

With `CN[C@@H](C)C(=O)N[C@H](C(=O)N1CCC[C@H]1C(=O)N[C@H](CNC(=O)c1ccc(C(=O)NC[C@@H](NC(=O)[C@@H]2CCCN2C(=O)[C@@H](NC(=O)[C@H](C)NC)C(C)(C)C)C2CCCCC2)cc1)C1CCCCC1)C(C)(C)C` [Compound P4-8] the IC50 [5] was 0.2 µM.

`CN[C@@H](C)C(=O)N[C@H](C(=O)N1C[C@@H](NC(=O)CC[C@@H](NC(=O)[C@H](NC(=O)[C@@H](C)NC)C(C)C)C(=O)N[C@@H](C)C(C)C)C[C@H]1C(=O)N[C@H](C)C(C)C)C(C)(C)C` [Compound 160] was tested, and the IC50 [3] was 29.4 µM.

In the case of `CN[C@@H](C)C(=O)N[C@H](C(=O)N1C[C@@H](NC(=O)C(O)CC(=O)N[C@H]2C[C@@H](C(=O)NC3CCCc4ccccc43)N(C(=O)[C@@H](NC(=O)[C@H](C)NC)C(C)(C)C)C2)CC1C(=O)N[C@@H]1CCCc2ccccc21)C(C)(C)C` (stereo partly shown) [Compound P3-84], the IC50 [4] is reported as 0.1 µM.

`CC[C@H](C)[C@H](NC(=O)[C@H](C)NC)C(=O)N1C[C@@H](NC(=O)/C=C/C(=O)N[C@H]2C[C@@H](C(=O)N[C@H](C)c3ccccc3)N(C(=O)[C@@H](NC(=O)[C@H](C)NC)[C@@H](C)CC)C2)C[C@H]1C(=O)N[C@H](C)c1ccccc1` [Compound P3-76] was tested, and the IC50 [4] was 0.036 µM.

Work on `CN[C@@H](C)C(=O)N[C@H](C(=O)N1C[C@@H](NC(=O)Cc2cccc(CC(=O)N[C@H]3C[C@@H](C(=O)N[C@@H]4CCCc5ccccc54)N(C(=O)[C@@H](NC(=O)[C@H](C)NC)C(C)(C)C)C3)c2)C[C@H]1C(=O)N[C@@H]1CCCc2ccccc21)C(C)(C)C` [Compound P3-19] yielded an IC50 [4] of 0.002 µM.

In the case of `CN[C@@H](C)C(=O)N[C@H](C(=O)N1C[C@@H](NC(=O)c2nc[nH]c2C(=O)N[C@H]2C[C@@H](C(=O)N[C@@H]3CCCc4ccccc43)N(C(=O)[C@@H](NC(=O)[C@H](C)NC)C(C)(C)C)C2)C[C@H]1C(=O)N[C@@H]1CCCc2ccccc21)C(C)(C)C` [Compound P3-36], the IC50 [4] is reported as 2.38 µM.

`CN[C@@H](C)C(=O)N[C@H](C(=O)N1CC[C@H](NC(=O)c2cccc(C(=O)N[C@H]3C[C@@H](C(=O)N[C@@H]4CCCc5ccccc54)N(C(=O)[C@@H](NC(=O)[C@H](C)NC)C(C)(C)C)C3)c2)C1)C(C)(C)C` [Compound 131] was tested, and the IC50 [3] was 0.642 µM.

With `CN[C@@H](C)C(=O)N[C@H](C(=O)N1C[C@@H](NC(=O)c2ccc(-c3ccc(C(=O)N[C@H]4C[C@@H](C(=O)NC5CCCc6ccccc65)N(C(=O)[C@@H](NC(=O)[C@H](C)NC)C(C)(C)C)C4)cn3)nc2)CC1C(=O)N[C@@H]1CCCc2ccccc21)C(C)(C)C` (stereo partly shown) [Compound P3-40] the IC50 [4] was 0.005 µM.

`CN[C@@H](C)C(=O)N[C@H](C(=O)N1C[C@@H](NC(=O)c2cc(C(=O)N[C@H]3C[C@@H](C(=O)NC4CCCc5ccccc54)N(C(=O)[C@@H](NC(=O)[C@H](C)NC)C(C)(C)C)C3)cc([N+](=O)[O-])c2)CC1C(=O)N[C@@H]1CCCc2ccccc21)C(C)(C)C` (stereo partly shown) [Compound P3-16] showed an IC50 [4] of 0.007 µM.

With `CN[C@@H](C)C(=O)N[C@H](C(=O)N1C[C@@H](NC(=O)C[C@H](NC(=O)OCC2c3ccccc3-c3ccccc32)C(=O)N[C@H]2C[C@@H](C(=O)N[C@@H]3CCCc4ccccc43)N(C(=O)[C@@H](NC(=O)[C@H](C)NC)C(C)(C)C)C2)C[C@H]1C(=O)N[C@@H]1CCCc2ccccc21)C(C)(C)C` [Compound P3-66] the IC50 [4] was 0.258 µM.

Compound `CN[C@@H](C)C(=O)N[C@@H](CCC(=O)O)C(=O)N1C[C@@H](NC(=O)c2cccc(C(=O)N[C@H]3C[C@@H](C(=O)N[C@@H]4CCCc5ccccc54)N(C(=O)[C@@H](NC(=O)[C@H](C)NC)C(C)(C)C)C3)c2)CC1C(=O)N[C@H](C)c1ccccc1` (stereo partly shown) [Compound 147] has an IC50 [3] of 0.185 µM.

`CCC[C@H](NC(=O)[C@H](C)NC)C(=O)N1C[C@@H](NC(=O)c2cccc(C(=O)N[C@H]3C[C@@H](C(=O)N[C@@H]4CCCc5ccccc54)N(C(=O)[C@@H](NC(=O)[C@H](C)NC)C(C)(C)C)C3)c2)C[C@H]1C(=O)N[C@H](C)C(C)C` [Compound 140] gave an IC50 [3] of 0.28 µM.

With `CN[C@@H](C)C(=O)N[C@H](C(=O)N1C[C@@H](NC(=O)[C@@H]2[C@@H]3CC[C@@H](C3)[C@@H]2C(=O)N[C@H]2C[C@@H](C(=O)N[C@@H]3CCCc4ccccc43)N(C(=O)[C@@H](NC(=O)[C@H](C)NC)C(C)(C)C)C2)C[C@H]1C(=O)N[C@@H]1CCCc2ccccc21)C(C)(C)C` [Compound P3-34] the IC50 [4] was 0.08 µM.

With `CN[C@@H](C)C(=O)N[C@H](C(=O)N1CCC[C@H]1C(=O)N[C@H](CNC(=O)c1cc(N)cc(C(=O)NC[C@@H](NC(=O)[C@@H]2CCCN2C(=O)[C@@H](NC(=O)[C@H](C)NC)C(C)(C)C)c2ccccc2)c1)c1ccccc1)C(C)(C)C` [Compound P4-13] the IC50 [5] was 0.089 µM.

With `CN[C@@H](C)C(=O)N[C@H](C(=O)N1C[C@@H](NC(=O)c2cccc(C(=O)N[C@H]3C[C@@H](C(=O)N[C@H](C)c4ccccc4)N(C(=O)[C@@H](NC(=O)[C@H](C)NC)C(C)C)C3)c2)C[C@H]1C(=O)N[C@H](C)c1ccccc1)C(C)C` [Compound P3-80] the IC50 [4] was 0.053 µM.
